Where “and” joins values, the source holds several entries; their conditions need not be identical. Identical values can stand only once.
How the values were obtained:
[1] = target: Alopecurus mutant PPO (ALOMY), SEQ ID NO 2 with amino acid substitution; experiment: PPO enzyme assay, dose-response (fluorescence), mutated Alopecurus PPO2; assay type: biochemical, Alopecurus myosuroides
[2] = system: transgenic Arabidopsis thaliana plants; experiment: Growth inhibition of transgenic Arabidopsis in 48-well plates, tolerance factor (Table 5, FIG. 2); assay type: in vivo; conditions: growth inhibition seven to ten days after seeding
[3] = system: transgenic T0 corn events; experiment: Herbicide injury of transgenic T0 corn events, greenhouse spray (Table 6a); assay type: in vivo, Zea mays; parameters: key: 0 is no injury relative to an unsprayed wild type check; 9 is completely dead; conditions: 7 days after treatment
[4] = system: transgenic soybean cv Jake cuttings; experiment: Herbicide injury of transgenic soybean cuttings from T0 plants (Table 7, FIG. 4); assay type: in vivo, Glyceine max; conditions: V2 spray, 1 week after treatment
[5] = system: Alopecurus wildtype PPO (ALOMY), PPO herbicide sensitive PPO2, SEQ ID NO 2; experiment: PPO enzyme assay, dose-response (fluorescence), wildtype Alopecurus PPO2; assay type: biochemical, Alopecurus myosuroides; conditions: Table 3a; PPO herbicide sensitive PPO2, SEQ ID NO 2, ALOMY

CC(C)N(C)S(=O)(=O)NC(=O)c1cc(-n2c(=O)cc(C(F)(F)F)n(C)c2=O)c(F)cc1Cl [saflufenacil]
IC50 [1]: > 10 µM | TF (Tolerance Factor), relative tolerance rate (non-transgenic = 1.0) ([2]; transgenic Arabidopsis Am_PPO2_F438I): 3300 | TF (Tolerance Factor), relative tolerance rate (non-transgenic = 1.0) ([2]; transgenic Arabidopsis Am_PPO2_R137A): 1500 | TF (Tolerance Factor), relative tolerance rate (non-transgenic = 1.0) ([2]; transgenic Arabidopsis Am_PPO2_R137A_F438I): 950 | TF (Tolerance Factor), relative tolerance rate (non-transgenic = 1.0) ([2]; transgenic Arabidopsis Am_PPO2_R137A_F438L): 2300 | TF (Tolerance Factor), relative tolerance rate (non-transgenic = 1.0) ([2]; transgenic Arabidopsis Am_PPO2_R137A_F438M): 2500 | TF (Tolerance Factor), relative tolerance rate (non-transgenic = 1.0) ([2]; transgenic Arabidopsis Am_PPO2_R137A_F438V): 2500 | TF (Tolerance Factor), relative tolerance rate (non-transgenic = 1.0) ([2]; transgenic Arabidopsis Am_PPO2_R137I): 2140 | TF (Tolerance Factor), relative tolerance rate (non-transgenic = 1.0) ([2]; transgenic Arabidopsis Am_PPO2_R137L_F438I): 2700 | TF (Tolerance Factor), relative tolerance rate (non-transgenic = 1.0) ([2]; transgenic Arabidopsis Am_PPO2_R137L_F438L): 2700 | TF (Tolerance Factor), relative tolerance rate (non-transgenic = 1.0) ([2]; transgenic Arabidopsis Am_PPO2_R137L_F438M): 3100 | TF (Tolerance Factor), relative tolerance rate (non-transgenic = 1.0) ([2]; transgenic Arabidopsis Am_PPO2_R137M_F438I): 1740 | TF (Tolerance Factor), relative tolerance rate (non-transgenic = 1.0) ([2]; transgenic Arabidopsis Am_PPO2_R137M_F438L): 1340 | TF (Tolerance Factor), relative tolerance rate (non-transgenic = 1.0) ([2]; transgenic Arabidopsis Am_PPO2_R137M_F438M): 1700 | TF (Tolerance Factor), relative tolerance rate (non-transgenic = 1.0) ([2]; transgenic Arabidopsis Am_PPO2_R137M_F438V): 1900 | Herbicide injury, 0 to 9 rating scale ([3]; T0 corn events tp-SorbiPPO2::AlomyPPO2_F431V, 75 g ai/ha + 1% (v/v) MSO at V2 stage): 3 | Herbicide injury, 0 to 9 rating scale ([3]; T0 corn events tp-SorbiPPO2::AlomyPPO2_R130A_F431V, 75 g ai/ha + 1% (v/v) MSO at V2 stage): 7 | Herbicide injury, 0 to 9 rating scale ([3]; T0 corn events tp-ZeamaPPO2::AlomyPPO2_F431V, 75 g ai/ha + 1% (v/v) MSO at V2 stage): 0 | Herbicide injury, 0 to 9 rating scale ([3]; T0 corn events tp-ZeamaPPO2::AlomyPPO2_R130A, 75 g ai/ha + 1% (v/v) MSO at V2 stage): 0 | Herbicide injury, 0 to 9 rating scale ([3]; untransformed wild type corn, 50 g ai/ha + 1% (v/v) MSO at V2 stage): 7 | Herbicide injury, 0 to 9 rating scale ([3]; untransformed wild type corn, 75 g ai/ha + 1% (v/v) MSO at V2 stage): 8 | Herbicide injury, 0 to 9 rating scale ([3]; untransformed wild type corn, 100 g ai/ha + 1% (v/v) MSO at V2 stage): 8 | Herbicide injury ([4]; AlomyPPO1_R138A T0 cuttings, BAS 800H 25 g ai/ha): 6 and 9 | Herbicide injury ([4]; AlomyPPO1_R138A_Y420M T0 cuttings, BAS 800H 25 g ai/ha): 0 | Herbicide injury ([4]; AlomyPPO1_R138A_Y420M T0 cuttings, BAS 800H 50 g ai/ha): 3 | Herbicide injury ([4]; AlomyPPO1_R138A_Y420M T0 cuttings, BAS 800H 100 g ai/ha): 3 | Herbicide injury ([4]; AlomyPPO1_R138L T0 cuttings, BAS 800H 25 g ai/ha): 8 and 7 and 6 | Herbicide injury ([4]; AlomyPPO1_R138L T0 cuttings, BAS 800H 50 g ai/ha): 8 and 9 and 6 and 7 | Herbicide injury ([4]; AlomyPPO1_R138L T0 cuttings, BAS 800H 100 g ai/ha): 8 and 9 | Herbicide injury ([4]; AlomyPPO1_Y420M T0 cuttings, BAS 800H 50 g ai/ha): 5 and 4 and 8 | Herbicide injury ([4]; AlomyPPO1_Y420M T0 cuttings, BAS 800H 100 g ai/ha): 5 and 4 and 8 | Herbicide injury ([4]; AlomyPPO2_R137A T0 cuttings, BAS 800H 25 g ai/ha): 3 | Herbicide injury ([4]; AlomyPPO2_R137A T0 cuttings, BAS 800H 50 g ai/ha): 0 | Herbicide injury ([4]; AlomyPPO2_R137A T0 cuttings, BAS 800H 100 g ai/ha): 2 | Herbicide injury ([4]; AlomyPPO2_R137A_F438L T0 cuttings, BAS 800H 200 g ai/ha): 6 and 9 | Herbicide injury ([4]; AlomyPPO2_R137A_F438V T0 cuttings, BAS 800H 200 g ai/ha): 4 and 3 and 6 | Herbicide injury ([4]; AlomyPPO2_R137L_F438I T0 cuttings, BAS 800H 100 g ai/ha): 9 | Herbicide injury ([4]; AlomyPPO2_R137L_F438I T0 cuttings, BAS 800H 200 g ai/ha): 9 | Herbicide injury ([4]; AlomyPPO2_R137M_F438L T0 cuttings, BAS 800H 50 g ai/ha): 4 | Herbicide injury ([4]; AlomyPPO2_R137M_F438L T0 cuttings, BAS 800H 100 g ai/ha): 6 and 3 | Herbicide injury ([4]; AlomyPPO2_R137M_F438M T0 cuttings, BAS 800H 50 g ai/ha): 9 | Herbicide injury ([4]; Wild type cuttings, BAS 800H 25 g ai/ha): 9 | Herbicide injury ([4]; Wild type cuttings, BAS 800H 50 g ai/ha): 9 | Herbicide injury ([4]; Wild type cuttings, BAS 800H 100 g ai/ha): 9 | Herbicide injury ([4]; Wild type cuttings, BAS 800H 200 g ai/ha): 9 | IC50 [5]: 211 nM

From patent US10392630B2, “Plants having increased tolerance to herbicides” (BASF AGRO B.V., priority 2013, dated 2019)
